Source: PubChem BioAssay AID248 (DTP/NCI, 2004)
“And” between values parts separate entries of the source, which are not always exact repeats. Equal values may be shown once. Toxic doses and inconclusive results are not listed. Cut-off read from the data, not from the text of the source: active = T/C of 150% or more; inactive = T/C below 125%.

Tested on: L1210 leukemia ip in BDF1 mice, survival T/C
Test: NCI In Vivo Anticancer Drug Screen. Data for tumor model L1210 Leukemia (intraperitoneal) in B6D2F1 (BDF1) mice
Conditions: endpoint: mean survival time, higher = longer survival
How it was run: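 Survival endpoint. Drug-treated group vs vehicle group, expressed as T divided by C. Tumor passaged by transplantation.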

[1] = dose: 50.0 mg/kg/injection, schedule: Q01DX009 (ip), vehicle: saline
[2] = dose: 100.0 mg/kg/injection, schedule: Q01DX001 (ip), vehicle: saline
[3] = dose: 100.0 mg/kg/injection, schedule: Q01DX009 (ip), vehicle: saline
[4] = dose: 200.0 mg/kg/injection, schedule: Q01DX001 (ip), vehicle: saline
[5] = dose: 400.0 mg/kg/injection, schedule: Q01DX001 (ip), vehicle: saline
[6] = dose: 100.0 mg/kg/injection, schedule: Q04DX002 (ip), vehicle: Klucel (hydroxypropylcellulose) (HPC)
[7] = dose: 200.0 mg/kg/injection, schedule: Q04DX002 (ip), vehicle: Klucel (hydroxypropylcellulose) (HPC)
[8] = dose: 400.0 mg/kg/injection, schedule: Q04DX002 (ip), vehicle: Klucel (hydroxypropylcellulose) (HPC)
[9] = dose: 25.0 mg/kg/injection, schedule: Q01DX009 (ip), vehicle: saline
[10] = dose: 25.0 mg/kg/injection, schedule: Q04DX003 (ip), vehicle: saline
[11] = dose: 50.0 mg/kg/injection, schedule: Q04DX003 (ip), vehicle: saline
[12] = dose: 100.0 mg/kg/injection, schedule: Q04DX003 (ip), vehicle: saline
[13] = dose: 100.0 mg/kg/injection, schedule: Q01DX001 (ip), vehicle: carboxymethylcellulose (CMC)
[14] = dose: 200.0 mg/kg/injection, schedule: Q01DX001 (ip), vehicle: carboxymethylcellulose (CMC)
[15] = dose: 400.0 mg/kg/injection, schedule: Q01DX001 (ip), vehicle: carboxymethylcellulose (CMC)
[16] = dose: 100.0 mg/kg/injection, schedule: Q01DX009 (ip), vehicle: Klucel (hydroxypropylcellulose) (HPC)
[17] = dose: 100.0 mg/kg/injection, schedule: Q04DX003 (ip), vehicle: Klucel (hydroxypropylcellulose) (HPC)
[18] = dose: 200.0 mg/kg/injection, schedule: Q01DX009 (ip), vehicle: Klucel (hydroxypropylcellulose) (HPC)
[19] = dose: 200.0 mg/kg/injection, schedule: Q04DX003 (ip), vehicle: Klucel (hydroxypropylcellulose) (HPC)
[20] = dose: 400.0 mg/kg/injection, schedule: Q01DX009 (ip), vehicle: Klucel (hydroxypropylcellulose) (HPC)
[21] = dose: 400.0 mg/kg/injection, schedule: Q04DX003 (ip), vehicle: Klucel (hydroxypropylcellulose) (HPC)

Measured: T/C

Cc1nc(-c2ccc(N=Cc3ccc(N(CCCl)CCCl)cc3)cc2)cs1
inactive: [1] 101 % of control | [2] 101 % of control | [3] 104 % of control | [4] 90 % of control | dose: 200.0 mg/kg/injection, schedule: Q01DX009 (ip), vehicle: saline 98 % of control | [5] 89 % of control | dose: 400.0 mg/kg/injection, schedule: Q01DX009 (ip), vehicle: saline 102 % of control

CN/C([S-])=N/N=C/C(=N/N=C(\[S-])NC)c1ccc(-c2ccccc2)cc1.[Cu+2]
inactive: [6] 106 % of control | [7] 95 % of control | [8] 100 % of control

Nc1nc(Cl)[nH]c1-c1ncn[nH]1
inactive: [2] 92 % of control | [4] 106 % of control

N#CCCCN1CCCCCC1
inactive: [9] 98 % of control | [10] 101 % of control | [1] 93 % of control | [11] 101 % of control | [12] 101 % of control

CCCC(=O)c1cc(C)ccc1OC
inactive: [13] 103 % of control | [14] 106 % of control | [15] 106 % of control

C=CC#N
inactive: dose: 6.0 mg/kg/injection, schedule: Q01DX009 (ip), vehicle: saline 95 % of control | dose: 12.0 mg/kg/injection, schedule: Q01DX009 (ip), vehicle: saline 93 % of control | dose: 12.5 mg/kg/injection, schedule: Q01DX009 (ip), vehicle: saline 98 % of control | [9] 93 % of control | dose: 50.0 mg/kg/injection, schedule: Q01DX009 (ip), vehicle: carboxymethylcellulose (CMC) 93 % of control | [1] 94 % of control and 105 % of control | [11] 91 % of control | dose: 100.0 mg/kg/injection, schedule: Q01DX009 (ip), vehicle: carboxymethylcellulose (CMC) 92 % of control | [14] 90 % of control | dose: 200.0 mg/kg/injection, schedule: Q01DX009 (ip), vehicle: carboxymethylcellulose (CMC) 93 % of control | [15] 95 % of control | dose: 400.0 mg/kg/injection, schedule: Q01DX009 (ip), vehicle: carboxymethylcellulose (CMC) 97 % of control | dose: 600.0 mg/kg/injection, schedule: Q01DX001 (ip), vehicle: carboxymethylcellulose (CMC) 98 % of control | dose: 600.0 mg/kg/injection, schedule: Q01DX009 (ip), vehicle: carboxymethylcellulose (CMC) 89 % of control | dose: 800.0 mg/kg/injection, schedule: Q01DX001 (ip), vehicle: carboxymethylcellulose (CMC) 93 % of control | dose: 800.0 mg/kg/injection, schedule: Q01DX009 (ip), vehicle: carboxymethylcellulose (CMC) 95 % of control

CCCCn1cc(S(=O)(=O)Nc2ccccc2)c(=O)[nH]c1=O
inactive: dose: 37.5 mg/kg/injection, schedule: Q01DX001 (ip), vehicle: saline with Tween-80 104 % of control | dose: 75.0 mg/kg/injection, schedule: Q01DX001 (ip), vehicle: saline with Tween-80 98 % of control | dose: 150.0 mg/kg/injection, schedule: Q01DX001 (ip), vehicle: saline with Tween-80 98 % of control

O=C(NCCCCCSC(=O)c1ccccc1)c1ccccc1
inactive: [6] 90 % of control | [7] 94 % of control | [8] 90 % of control

COc1cc(C(=O)CCC(=O)O)c(OC)c(C)c1C
inactive: dose: 100.0 mg/kg/injection, schedule: Q01DX001 (ip), vehicle: other 93 % of control | dose: 200.0 mg/kg/injection, schedule: Q01DX001 (ip), vehicle: other 96 % of control | dose: 400.0 mg/kg/injection, schedule: Q01DX001 (ip), vehicle: other 91 % of control

CNC1CC2CCC(C2)C1(O)c1ccccc1 (centres undefined)
inactive: [10] 91 % of control | [11] 113 % of control | [2] 100 % of control | [12] 102 % of control

Nn1c(=S)[nH]n2cnnc12
inactive: [13] 98 % of control | [14] 106 % of control | [15] 95 % of control

CCCC(C)C(C#N)C(=O)OCC (centres undefined)
inactive: dose: 100.0 mg/kg/injection, schedule: Q04DX003 (ip), vehicle: saline with Tween-80 106 % of control | dose: 200.0 mg/kg/injection, schedule: Q04DX003 (ip), vehicle: saline with Tween-80 101 % of control | dose: 400.0 mg/kg/injection, schedule: Q04DX003 (ip), vehicle: saline with Tween-80 105 % of control

C=CCOc1ccccc1OCC=C
inactive: [13] 107 % of control | [14] 102 % of control | [15] 100 % of control

CCCOB(OCCC)OCCC
inactive: dose: 50.0 mg/kg/injection, schedule: Q01DX001 (ip), vehicle: saline 95 % of control | [2] 98 % of control | [4] 98 % of control | [5] 106 % of control

COC1=C(N=[N+]=[N-])C(=O)c2ccccc2C1=O
inactive: dose: 6.25 mg/kg/injection, schedule: Q04DX002 (ip), vehicle: saline with Tween-80 104 % of control | dose: 12.5 mg/kg/injection, schedule: Q04DX002 (ip), vehicle: saline with Tween-80 96 % of control

CN(C)c1n[nH]c(N=[N+]=[N-])n1
inactive: dose: 100.0 mg/kg/injection, schedule: Q04DX002 (ip), vehicle: saline with Tween-80 104 % of control | dose: 200.0 mg/kg/injection, schedule: Q04DX002 (ip), vehicle: saline with Tween-80 90 % of control | dose: 400.0 mg/kg/injection, schedule: Q04DX002 (ip), vehicle: saline with Tween-80 104 % of control

CCC(C)Nc1ccccc1 (centres undefined)
inactive: dose: 50.0 mg/kg/injection, schedule: Q01DX009 (ip), vehicle: Klucel (hydroxypropylcellulose) (HPC) 102 % of control and 104 % of control | dose: 50.0 mg/kg/injection, schedule: Q04DX003 (ip), vehicle: Klucel (hydroxypropylcellulose) (HPC) 101 % of control | [16] 102 % of control and 103 % of control | [17] 101 % of control | [18] 94 % of control and 87 % of control | [19] 97 % of control

C=CCNc1ncnc2c1cnn2C
inactive: [1] 118 % of control | [3] 103 % of control

CCCCCCC(/C=C/C=C/c1ccccc1)=N\O
inactive: [17] 96 % of control | [18] 91 % of control | [19] 90 % of control | [20] 91 % of control | [21] 98 % of control

CCN(c1ccccc1)c1ccc(C=O)cc1
inactive: [16] 98 % of control | [17] 97 % of control | [18] 94 % of control | [19] 102 % of control | [20] 93 % of control | [21] 105 % of control

Nc1ccc(S(=O)(=O)Nc2ccccn2)cc1
inactive: [6] 102 % of control | [7] 98 % of control | [8] 98 % of control

CC(=N/N(C)c1ccccc1)/C(C)=N/N(C)c1ccccc1
inactive: dose: 5.0 mg/kg/injection, schedule: Q01DX001 (ip), vehicle: other 96 % of control | dose: 10.0 mg/kg/injection, schedule: Q01DX001 (ip), vehicle: other 102 % of control | dose: 20.0 mg/kg/injection, schedule: Q01DX001 (ip), vehicle: other 100 % of control | dose: 40.0 mg/kg/injection, schedule: Q01DX001 (ip), vehicle: other 100 % of control | dose: 80.0 mg/kg/injection, schedule: Q01DX001 (ip), vehicle: other 93 % of control
